Reference: patent publication US20220306653A1, “MACROCYCLIC INHIBITORS OF MCL-1” (Janssen Pharmaceutica NV, priority 2019, published 2022)
“And” between values parts separate entries of the source, which are not always exact repeats. Identical values can stand only once. Like-named read-outs stand apart in the source and are kept apart here.

Assays:
[1] = system: MOLP-8 human multiple myeloma cell line; assay: MOLP8 Caspase-Glo 3/7 luminescent assay; format: cell-based; conditions: 2 hours incubation, averaged values over all runs on all batches
Excerpt: (§1) MCL-1 is a regulator of apoptosis and is highly over-expressed in tumor cells that escape cell death. The assay evaluates the cellular potency of small-molecule compounds targeting regulators of the apoptosis pathway, primarily MCL-1, Bfl-1, Bcl-2, and other proteins of the Bcl-2 family. Protein-protein inhibitors disrupting the interaction of anti-apoptotic regulators with BH3-domain proteins initiate apoptosis.
The Caspase-Glo® 3/7 Assay is a luminescent assay that measures caspase-3 and -7 activities in purified enzyme preparations or cultures of adherent or suspension cells. The assay provides a proluminescent caspase-3/7 substrate, which contains the tetrapeptide sequence DEVD. This substrate is cleaved to release aminoluciferin, a substrate of luciferase used in the production of light. Addition of the single Caspase-Glo® 3/7 Reagent in an “add-mix-measure” format results in cell lysis, followed by caspase cleavage of the substrate and generation of a “glow-type” luminescent signal.
This assay uses the MOLP-8 human multiple myeloma cell line, which is sensitive to MCL-1 inhibition.
Cell cultures were maintained between 0.2 and 2.0×10^6 cells/mL. The cells were harvested by collection in 50 mL conical tubes. The cells were then pelleted at 500 g for 5 mins before removing supernatant and resuspension in fresh pre-warmed culture medium. The cells were counted and diluted as needed.
The assay reagent was prepared by transferring the buffer solution to the substrate vial and mixing. The solution may be stored for up to 1 week at 4° C. with negligible loss of signal.
Compounds were delivered in assay-ready plates (Proxiplate) and stored at −20° C.
Assays always include 1 reference compound plate containing reference compounds. The plates were spotted with 40 nL of compounds (0.5% DMSO final in cells; serial dilution; 30 μM highest conc. ⅓ dilution, 10 doses, duplicates). The compounds were used at room temperature and 4 μL of pre-warmed media was added to all wells except column 2 and 23. The negative control was prepared by adding 1% DMSO in media. The positive control was prepared by adding the appropriate positive control compound in final concentration of 60 μM in media. The plate was prepared by adding 4 μL negative control to column 23, 4 μL positive control to column 2 and 4 μL cell suspension to all wells in the plate. The plate with cells was then incubated at 37° C. for 2 hours. The assay signal reagent is the Caspase-Glo solution described above, and 8 μL was added to all wells. The plates were then sealed and measured after 30 minutes.
The activity of a test compound was calculated as percent change in apoptosis induction as follows:
LC=median of the Low Control values • =Central Reference in Screener • =DMSO • =0% ΠC=Median of the High Control values • =Scale Reference in Screener • =30 pM of positive control • =100% apoptosis induction
% Effect (AC50)=100−(sample−LC)/(HC−LC)*100
% Control=(sample/HC)*100
% Control min=(sample−LC)/(HC−LC)*100

MOLP8 cells = assay: MOLP8 CellEvent Caspase-3/7 Green apoptosis activation assay (IncuCyte live-cell kinetic readout); format: cell-based; conditions: each independent run listed
Method: as §1
Activation of the apoptotic pathway was measured using the CellEvent™ Caspase-3/7 Green ReadyProbes™ Reagent (Thermo Fisher C10423, C10723). This assay produces a green fluorescent stain in cells that enter the apoptosis pathway. CellEvent® Caspase-3/7 Green reagent is a four amino acid peptide (DEVD) conjugated to a nucleic acid-binding dye that is non-fluorescent when not bound to DNA. The CellEvent® Caspase-3/7 Green reagent is intrinsically non-fluorescent, as the DEVD peptide inhibits binding of the dye to DNA. Upon activation of caspase-3/7 in apoptotic cells, the DEVD peptide is cleaved and the free dye can bind DNA, generating a bright green fluorescence. The activation of Caspase-3 and Caspase-7 is downstream of inhibition of MCL-1 or other apoptosis inhibiting proteins in cell lines that are dependent on them.
The live-cell readout on the IncuCyte permits tracking over time of the Caspase activation. […] The IncuCyte readout also allows one to normalize for cell number, as the suspension cells are hard to distribute evenly.
Signals were measured every 2 h for a duration of 22 h. The ratio of the Caspase mask to the Confluence mask, per image, as raw data, was calculated and the kinetic trace for every well was exported to Genedata Screener for analysis.
In Genedata Screener values for 6 h, 12 h, and 22 h from the kinetic traces were extracted. The values were normalized against negative controls (untreated cells). A standard dose-response analysis was performed on the normalized data.
The following data was reported at each of the following three aforementioned time points: (a) The dose-response curve, (b) The qAC50 and qAC50 Mode, and (c) Max Activity.
Cells were maintained in culture medium containing 10% Heat Inactivated (HI) FBS, 2 mM L-Glutamine and 50 µg/mL Gentamycin phenol red free RPMI-1640. Cells were split at 0.4 million/mL twice a week.
On Day 1, plates containing individual wells with test compounds at 10 mM concentration, 150 nL per well. The final concentrations range from […] compound (and no compound control) and compounds were thawed at room temperature for 1 hour. 25 μl of prewarmed medium was added into each well by multidrop (column 1, 3-22, 24), followed by addition of DMSO control (0.6% DMSO) in column 2. The plate was sealed using Breathe-Easy® sealing membrane and shaken for 30 min at room temperature to dissolve the test compound(s) in medium. The plate was then kept in the incubator for 1 hour at 37° C., 5% CO2.
MOLP8 cells in medium at […] (20000/50 μl final in assay) were prepared with CellEvent™ Caspase-3/7 Green Detection Reagent at 4 μM (2 μM final in assay). Once prepared, the cells were added to the test compound plate in an amount of 20000 and the plate was immediately placed in the IncuCyte and imaging started using following settings: 10× objective, 2 s exposure time in green channel, interval of 2 h, acquisition stopped after 22 h.
For analysis in IncuCyte, a Basic Analysis protocol was defined to calculate the “confluence” and “caspase” areas from the “Phase” and “green” images, respectively, as follows: (a) Confluence: Segmentation Adjustment 1, Hole Fill 0, Adjust Size −2, No filters (b) Caspase: Top-Hat segmentation, Radius 10, Threshold 0.3 GCU, Edge Split On with sensitivity 0, Hole Fill 0, Adjust Size 1, and filter on a minimum Area of 20 μm^2. The analyzer is trained on a sufficient number of positive and negative control wells, as well as compound treated wells, verifying that the “confluence” layer detects both live and dead (condensed) cells. […]

[2] = system: Molp8 multiple myeloma cell line; assay: Molp8 multiple myeloma cell line survival assay using Annexin V and 7AAD; format: cell-based, human; conditions: live cell percent by Annexin V/7AAD flow cytometry, 3 days incubation, each independent run listed individually, read-out: MOLP8 Apoptosis IC50
Excerpt: Molp8 multiple myeloma cell line survival assay using Annexin V and 7AAD.
The Annexin V/7AAD principle is based on the location of phosphatidylserine in the plasma membrane and the integrity of the membrane barrier. During early apoptosis, phosphatidylserine loses its normal distribution patterns in the inner leaflet of the plasma membrane and appears on the exterior of the plasma membrane. Annexin proteins are calcium dependent phospholipid binding proteins and can bind phosphatidylserine on the outer membrane during cell death. The viability dye 7AAD is excluded from entering cells with intact plasma membranes but accumulates in cells that have lost membrane integrity. Annexin Fitc is excited by the 488 nm laser (max excitation: 490 nm, max emission: 525 nm) as is 7AAD (excitation: 488 nm, emission: 650 nm), which allows this assay to be completed on any multicolor flow cytometer.
The assay conditions were optimized using the following 1× reaction buffer: 5 mM HEPES (4-(2-hydroxyethyl)-1-piperazineethanesulfonic acid), 70 mM NaCl, 1.25 mM CaCl2, pH 7.4.
The Molp 8 cells were multiple myeloma, human, in suspension (*cells were counted 2× per week and culture density maintained between 0.5 and 1.5×10^6 cells per ml).
On Day 1, 5×10^4 live cells per well were plated in a 96-well U-bottom plate, with the cells plated in 100 uL RPMI+10% FBS. An 11-point compound dilution plate was prepared in 3-fold steps (Final concentration range 10 μM-0.1 nM) and added at a concentration of 1 μL per well. The plate was then incubated for 3 days at 37° C. and 5% CO2.
On Day 4, the cells were pelleted and the media discarded. The cells were then resuspended in 50 μL AnnexinV-Fitc (1:40 dilution) and 7AAD (1:100 dilution) in Annexin binding buffer, then incubated for 30 min @ room temperature in the dark. 50 μL binding buffer (100 uL total volume) was then added to the cells. There was no wash step required.
Within 2 hours, PeCy5 (7AAD) and Fitc (Annexin) channels were recorded using BD Canto, collecting a minimum per singlet of 10,000 events.
The activity of a test compound was calculated based on the live cell percentage. • LC=Median of the low control values • =Low control: cells without treatment (no greater than 100% live) • HC=Median of the high control values • =High control: cells treated with 10 uM drug (no less than 0% live)
A best-fit curve was fitted by a minimum sum of squares method to the plot of live cell percent vs. compound concentration. From this an IC50 value (inhibitory concentration causing 50% cytotoxicity) was obtained. An estimate of the slope of the plot in terms of the Hill coefficient was also obtained.

[3] = Homo sapiens, MOLP-8, 6 h, 6 h, read-out: MOLP8 Caspase 3/7 AC50 at 6 h
[4] = Homo sapiens, MOLP-8, 12 h, 12 h, read-out: MOLP8 Caspase 3/7 AC50 at 12 h

Compound | AC50 ([1]; Homo sapiens, MOLP-8, 2 h) [nM] | AC50 [1] [nM] | further results
Cc1c(C(=O)O)n2c3ccc(Cl)c(c13)-c1c(nn(C)c1C)CSCc1cc(nn1C(C)C)CSc1cc(c3ccccc3c1)OCCC2 (single isomer, unassigned) [Compound 13] | 1250 |  | 
Cc1c(C(=O)O)n2c3ccc(Cl)c(c13)-c1c(nn(C)c1C)CNCc1cc(n(C)n1)CSc1cc(c3ccccc3c1)OCCC2 [Compound 4, 15-Chloro-13,21,25,61-tetramethyl-11H,21H,61H-10-oxa-8-thia-4-aza-1(4,1)-indola-2(4,3),6(3,5)-dipyrazola-9(3,1)-naphthalenacyclotridecaphane-12-Carboxylic acid] | 920 |  | AC50 (MOLP8 cells; [3]): 1620 nM; AC50 (MOLP8 cells; [4]): 1590 nM; AC50 (MOLP8 cells; Homo sapiens, MOLP-8, 22 h, 22 h, read-out: MOLP8 Caspase 3/7 AC50 at 22 h): 1380 nM
Cc1c(C(=O)O)n2c3ccc(Cl)c(c13)-c1c(nn(C)c1C)CN(C(C)C)Cc1cc(n(C)n1)CSc1cc(c3ccccc3c1)OCCC2 [Compound 9] | 160 |  | 
CCn1nc2cc1CSc1cc(c3ccccc3c1)OCCCn1c(C(=O)O)c(C)c3c(c(Cl)ccc31)-c1c(nn(C)c1C)CSC2 (single isomer, unassigned) [Compound 10] | 120 |  | 
Cc1c(C(=O)O)n2c3ccc(Cl)c(c13)-c1c(nn(C)c1C)CN(C)Cc1cc(n(C)n1)CSc1cc(c3ccccc3c1)OCCC2 [Compound 3, 15-chloro-13,21,25,61,4-pentamethyl-11H,21H,61H-10-oxa-8-thia-4-aza-1(4,1)-indola-2(4,3),6(3,5)-dipyrazola-9(3,1)-naphthalenacyclotridecaphane-12-carboxylic acid] |  |  | IC50 ([2]; Homo sapiens, MOLP-8, 72 h): 200 nM; IC50 [2]: 256 nM; AC50 (MOLP8 cells; 6 h, read-out: MOLP8 Caspase 3/7 AC50 at 6 h): 178 nM and 251 nM; AC50 (MOLP8 cells; 12 h, read-out: MOLP8 Caspase 3/7 AC50 at 12 h): 263 nM and 195 nM; AC50 (MOLP8 cells; [3]): 347 nM; AC50 (MOLP8 cells; [4]): 363 nM
Cc1[nH]nc2c1-c1c(Cl)ccc3c1c(C)c(C(=O)O)n3CCCOc1cc(cc3ccccc13)SCc1cc(nn1C)CN(C)C2 (single isomer, unassigned) [Compound 14] |  | 920 | 
CCn1nc2cc1CSCc1nn(C)c(C)c1-c1c(Cl)ccc3c1c(C)c(C(=O)O)n3CCCOc1cc(cc3ccccc13)SC2 (single isomer, unassigned) [Compound 11] | > 30000 |  | 
Cc1[nH]nc2c1-c1c(Cl)ccc3c1c(C)c(C(=O)O)n3CCCOc1cc(cc3ccccc13)SCc1cc(nn1C)CSC2 (single isomer, unassigned) [Compound 16] |  | 540 | 
Cc1[nH]nc2c1-c1c(Cl)ccc3c1c(C)c(C(=O)O)n3CCCOc1cc(cc3ccccc13)SCc1cc(nn1C)CSC2 (single isomer, unassigned) [Compound 17] |  | 21300 | 
Cc1c(C(=O)O)n2c3ccc(Cl)c(c13)-c1c(nn(C)c1C)CN(C)Cc1cc(n(C)n1)CSc1cc(c3ccccc3c1)OCCC2 (single isomer, unassigned) [Compound 5] | 14500 |  | 
Cc1c(C(=O)O)n2c3ccc(Cl)c(c13)-c1c(nn(C)c1C)CSCc1cc([nH]n1)CSc1cc(c3ccccc3c1)OCCC2 (single isomer, unassigned) [Compound 7] | 70 |  | 
Cc1[nH]nc2c1-c1c(Cl)ccc3c1c(C)c(C(=O)O)n3CCCOc1cc(cc3ccccc13)SCc1cc(nn1C)CN(C)C2 (single isomer, unassigned) [Compound 15] |  | 15300 | 
Cc1c(C(=O)O)n2c3ccc(Cl)c(c13)-c1c(nn(C)c1C)CSCc1cc([nH]n1)CSc1cc(c3ccccc3c1)OCCC2 (single isomer, unassigned) [Compound 8] |  | 90 | 
Cc1c(C(=O)O)n2c3ccc(Cl)c(c13)-c1c(nn(C)c1C)CSCc1cc(n(C(C)C)n1)CSc1cc(c3ccccc3c1)OCCC2 (single isomer, unassigned) [Compound 12] | 510 |  | 
